The source of these data is patent US20150232876A1, “Use of a Receptor Kinase Having LysM Motifs in Order to Improve the Response of Plants to Lipochitooligosaccharides” (INSTITUT NATIONAL DE LA RECHERCHE AGRONOMIQUE, priority 2012, published 2015).

One assay has as its system SILYR3. As to the kind of experiment: Equilibrium binding on SILYR3 expressed in N. benthamiana leaves. Set-up: species or system Solanum lycopersicum. As to the method:
(§1) In non-legumes, PpLYR3, SILYR3 and AtLysM-RLK4 genes have been cloned, the corresponding proteins were expressed in N. benthamiana leaves, and their ability to bind to LCOs was determined by binding experiments at equilibrium, as described above for legumes LYR3 proteins.

The next assay deals with PpLYR3 (Prunus persica, UniProt A0A251NBL6). As to the kind of experiment: Equilibrium, saturation and competition binding on PpLYR3 expressed in N. benthamiana leaves. As for the experimental part:
as §1
The interaction of PpLYR3 with the Nod LCO-IV (^35S, C16:2Δ2, 9) factor has been characterized in more detail by means of saturation and competition experiments. The results obtained are illustrated in FIG. 9. […] Similarly, PpLYR3 specifically recognizes the LCOs as interaction with COs (CO-IV and CO-VIII) is of low affinity (Ki>5 μM).

In the next assay the target is PsLYR3 (Lathyrus oleraceus, UniProt A0A9D5BD18). As to the kind of experiment: Equilibrium, saturation and competitive binding on MtLYR3 ortholog expressed in N. benthamiana leaves. The arrangement: species or system Pisum sativum. An excerpt:
(§2) In legumes, MtLYR3 orthologs have been identified in P. sativum, P. vulgaris and L. japonicus. In G. max orthologs exist in duplicate due to a duplication of the genome. The corresponding genes have been cloned and sequenced. A few differences in sequence compared with sequences in the databases were found which could be explained by the use of different varieties of plants or by sequencing errors in databases. The cloned genes were introduced into binary vectors, in C-terminal fusion with the fluorescent protein YFP, and introduced into Nicotiana benthamiana leaves using agroinfiltration by Agrobacterium tumefaciens, as described above in Example 3. The membrane fractions were isolated, their protein content was analyzed by electrophoresis under denaturing conditions, followed by immunodetection using anti-GFP antibody as described in Example 3, and their ability to interact with LCOs was determined by equilibrium binding, as described in Example 1, in the presence of 1 nM LCO-IV (S^35, C16:2Δ2, 9). The value of specific binding is determined by the value of difference between the total binding and the nonspecific binding obtained for incubation in the presence of an excess (2 μM) of unlabeled ligand. For comparison, the ability to interact of LjNFR5 and LjNFR1 receptors, identified in L. japonicus to play a role in nodulation by a genetic approach (MADSEN et al, Nature, 425, 637-40, 2003. RADUTOIU et al., Nature, 425, 585-92, 2003a) and respective orthologs of LYK3 and NFP in M. truncatula was determined under the same conditions.
(§3) To further characterize the binding properties of MtLYR3 orthologs to LCOs, saturation and competitive binding experiments in the presence of different COs or LCOs were performed.

The next assay deals with T1, AtLysM-RLK4 (Arabidopsis thaliana, UniProt O64825).
T1 construct: YFP (implied by anti-GFP immunopurification); expressed in transfected cells; host or cells: Nicotiana benthamiana leaves, membrane fraction
T1 sequence (O64825 23-612): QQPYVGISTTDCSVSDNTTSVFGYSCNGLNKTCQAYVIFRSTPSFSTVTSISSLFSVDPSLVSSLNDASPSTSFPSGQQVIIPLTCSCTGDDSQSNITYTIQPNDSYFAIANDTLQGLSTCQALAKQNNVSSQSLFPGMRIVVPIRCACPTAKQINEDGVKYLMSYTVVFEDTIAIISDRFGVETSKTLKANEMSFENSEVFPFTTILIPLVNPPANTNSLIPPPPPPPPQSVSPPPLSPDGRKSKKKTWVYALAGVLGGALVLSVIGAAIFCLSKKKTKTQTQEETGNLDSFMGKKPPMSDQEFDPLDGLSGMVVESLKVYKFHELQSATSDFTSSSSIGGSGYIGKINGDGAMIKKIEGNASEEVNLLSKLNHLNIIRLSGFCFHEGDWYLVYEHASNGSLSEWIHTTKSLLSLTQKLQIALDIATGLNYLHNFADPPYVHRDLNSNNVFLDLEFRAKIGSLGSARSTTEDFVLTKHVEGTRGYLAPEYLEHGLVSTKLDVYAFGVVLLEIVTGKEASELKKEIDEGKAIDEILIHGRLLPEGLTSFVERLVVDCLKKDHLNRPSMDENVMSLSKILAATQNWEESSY
Description: Equilibrium binding on AtLysM-RLK4 expressed in N. benthamiana leaves. As for the experimental part:
as §1

Another assay has as its target GmLYR3-11 (Glycine max, UniProt I1LHL9). As to the kind of experiment: Equilibrium, saturation and competitive binding on MtLYR3 ortholog expressed in N. benthamiana leaves.
Description: as §2, §3

The target in a further assay is GmLYR3-1 (Glycine max, UniProt A5YJW2). Described as above.
Description: as §2, §3

The next assay addresses PvLYR3 (Phaseolus vulgaris, UniProt V7CFC1). Described as above.
Description: as §2, §3

The target in another assay is LjLYS12 (Lotus japonicus, UniProt D3KTZ9). The assay is described as above.
Description: as §2, §3

Another assay deals with LjNFR1. As to the kind of experiment: Equilibrium binding on receptor expressed in N. benthamiana leaves. The arrangement: species or system Lotus japonicus. Particulars: LjNFR1, 1 nM radioligand.
Description: as §2, with “For comparison, the ability to interact of LjNFR5 and LjNFR1 receptors, identified in L. japonicus to play a role in nodulation by a genetic approach (MADSEN et al, Nature, 425, 637-40, 2003. RADUTOIU et al., Nature, 425, 585-92, 2003a) and respective orthologs of LYK3 and NFP in M. truncatula was determined under the same conditions.” left out

For another assay, the system named is LjNFR5. The description is as above. Set-up: species or system Lotus japonicus. Particulars: LjNFR5, 1 nM radioligand.
Description: as §2, with “For comparison, the ability to interact of LjNFR5 and LjNFR1 receptors, identified in L. japonicus to play a role in nodulation by a genetic approach (MADSEN et al, Nature, 425, 637-40, 2003. RADUTOIU et al., Nature, 425, 585-92, 2003a) and respective orthologs of LYK3 and NFP in M. truncatula was determined under the same conditions.” left out

For a further assay, the target named is LYR3 (Medicago truncatula, UniProt G7KAT5). Description: Saturation and competitive binding on LYR3-YFP expressed in N. benthamiana leaf membrane fractions. Particulars: LYR3-YFP in N. benthamiana leaf membranes; competition with 0.9 nM LCO-IV(35S, C16:2Δ2,9); read-out: Affinity (nM) for LYR3 (Ki). An excerpt: Genes LYR3, LYK9 and LYR6 were inserted into a binary vector, fused in C-terminal with a fluorescent protein (Yellow Fluorescent Protein: YFP) and introduced into Nicotiana benthamiana leaves using agroinfiltration by Agrobacterium tumefaciens. Meanwhile, NFP and LYK3 genes which encode putative receptors […] Nod factors were inserted into the same vectors and expressed in the same conditions.
3 days after agro-infiltration, leaves of N. benthamiana expressing the different constructs were harvested and ground in liquid nitrogen. Membrane fractions were prepared from the ground material, using the same protocol as that described above for the preparation of microsomal fractions, except that 0.6% (w/v) of polyvinyl-polypyrrolidone were added to extraction buffer. After centrifugation at 3000×g, the supernatant was collected and centrifuged at 45000×g. The resulting (membrane fraction) pellet was resuspended in binding buffer, and stored at −80° C. in the presence of 10% or 50% glycerol, until use.
Membrane proteins were separated by 10% polyacrylamide gel electrophoresis in SDS, and transferred onto nitrocellulose membrane, and detection of recombinant proteins made using anti-GFP antibody. Meanwhile, the properties of specific binding to LCOs were assessed by equilibrium binding, as described in Example 1, using 0.8 to 2.4 nM of LCO-IV (^35S, C16:2Δ2, 9) +/−2 μM of unlabeled LCO-IV (S, C16: 2Δ2, 9), and 25 micrograms to 80 micrograms of membrane protein, depending of the expression level of the protein labeled with YFP.
To further characterize the binding properties of the protein LYR3, saturation binding experiments using LCO-IV (^35S, C16:2Δ2, 9) and competitive binding experiments in the presence of different COs or LCOs were performed.

Assay [1] relates to 100 kDa polypeptide (MtNFBS2). As to the kind of experiment: Photolabeling of the 100 kDa polypeptide in membrane fractions, with excess competitors. It counts as binding, Medicago truncatula. Particulars: 2 μM competitor, 5 nM azido ligand, dmi3 membrane fraction. An excerpt: To assess the molecular mass of the affine protein of Nod factors responsible for binding properties of MtNFBS2, a photolabeling with Nod factors analogs containing a photoactivatable group, which after irradiation in a given wavelength reactive species which can form a covalent bond with the surrounding molecules, has been taken. […] homologues of these molecules have been synthesized and labeled with ^35S to enable detection of the stable complex ligand/binding protein.
For photolabeling, 5 nM of radioactive and photoactivatable ligand, alone or in the presence of an excess (2 μM) different competitors were incubated in binding buffer, in the same conditions as described in Example 1 above for the binding experiments at equilibrium, with 300 micrograms of membrane protein fraction obtained from cultured cells of wild-type Medicago truncatula (A 17), or the dmi3 mutant of Medicago truncatula. After 1 hour of incubation, the samples were irradiated for 5 min at 254 nm or 10 min at 365 nm with a fluorescent tube at a distance of 4 cm. The free ligand was removed by centrifugation, and the membrane pellet was washed two times in binding buffer.
The membrane pellet proteins were separated by polyacrylamide gel electrophoresis in 10% SDS, and transferred onto nitrocellulose membrane, and detection was carried out by autoradiography.

Sequence of PpLYR3 (A0A251NBL6 entry or part of it): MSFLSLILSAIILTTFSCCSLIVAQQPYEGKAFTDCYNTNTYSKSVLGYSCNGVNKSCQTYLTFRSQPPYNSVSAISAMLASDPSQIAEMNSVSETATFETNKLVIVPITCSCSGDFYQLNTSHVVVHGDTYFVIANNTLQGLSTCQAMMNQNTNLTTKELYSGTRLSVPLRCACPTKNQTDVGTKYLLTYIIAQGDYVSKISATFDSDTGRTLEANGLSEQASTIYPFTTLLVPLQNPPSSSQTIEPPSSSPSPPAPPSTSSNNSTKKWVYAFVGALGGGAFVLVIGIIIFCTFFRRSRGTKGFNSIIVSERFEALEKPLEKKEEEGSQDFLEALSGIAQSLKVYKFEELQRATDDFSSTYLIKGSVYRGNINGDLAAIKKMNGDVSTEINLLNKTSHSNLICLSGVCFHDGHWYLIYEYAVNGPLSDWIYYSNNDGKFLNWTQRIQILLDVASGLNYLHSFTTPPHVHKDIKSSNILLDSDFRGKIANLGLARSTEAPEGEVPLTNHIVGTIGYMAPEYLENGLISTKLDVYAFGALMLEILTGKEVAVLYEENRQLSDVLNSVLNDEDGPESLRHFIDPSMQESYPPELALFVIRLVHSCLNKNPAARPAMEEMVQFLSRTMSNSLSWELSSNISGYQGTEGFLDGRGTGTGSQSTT
Sequence of GmLYR3-11 (I1LHL9 entry or part of it): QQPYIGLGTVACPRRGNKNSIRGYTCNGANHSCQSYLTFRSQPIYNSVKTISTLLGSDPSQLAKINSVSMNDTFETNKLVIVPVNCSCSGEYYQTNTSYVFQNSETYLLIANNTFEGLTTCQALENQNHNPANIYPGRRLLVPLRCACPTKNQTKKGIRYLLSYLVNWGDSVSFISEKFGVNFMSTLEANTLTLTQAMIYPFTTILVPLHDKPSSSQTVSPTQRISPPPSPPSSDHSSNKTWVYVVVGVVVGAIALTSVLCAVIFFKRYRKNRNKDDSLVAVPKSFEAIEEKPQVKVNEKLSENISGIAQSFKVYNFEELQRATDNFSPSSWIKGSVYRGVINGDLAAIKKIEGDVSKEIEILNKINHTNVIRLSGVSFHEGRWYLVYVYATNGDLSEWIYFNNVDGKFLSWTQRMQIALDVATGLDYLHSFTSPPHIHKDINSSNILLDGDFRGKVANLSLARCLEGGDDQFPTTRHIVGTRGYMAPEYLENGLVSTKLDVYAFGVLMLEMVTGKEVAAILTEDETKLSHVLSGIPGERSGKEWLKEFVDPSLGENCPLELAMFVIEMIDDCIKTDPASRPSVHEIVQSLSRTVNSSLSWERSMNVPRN
Sequence of GmLYR3-1 (A5YJW2 entry or part of it): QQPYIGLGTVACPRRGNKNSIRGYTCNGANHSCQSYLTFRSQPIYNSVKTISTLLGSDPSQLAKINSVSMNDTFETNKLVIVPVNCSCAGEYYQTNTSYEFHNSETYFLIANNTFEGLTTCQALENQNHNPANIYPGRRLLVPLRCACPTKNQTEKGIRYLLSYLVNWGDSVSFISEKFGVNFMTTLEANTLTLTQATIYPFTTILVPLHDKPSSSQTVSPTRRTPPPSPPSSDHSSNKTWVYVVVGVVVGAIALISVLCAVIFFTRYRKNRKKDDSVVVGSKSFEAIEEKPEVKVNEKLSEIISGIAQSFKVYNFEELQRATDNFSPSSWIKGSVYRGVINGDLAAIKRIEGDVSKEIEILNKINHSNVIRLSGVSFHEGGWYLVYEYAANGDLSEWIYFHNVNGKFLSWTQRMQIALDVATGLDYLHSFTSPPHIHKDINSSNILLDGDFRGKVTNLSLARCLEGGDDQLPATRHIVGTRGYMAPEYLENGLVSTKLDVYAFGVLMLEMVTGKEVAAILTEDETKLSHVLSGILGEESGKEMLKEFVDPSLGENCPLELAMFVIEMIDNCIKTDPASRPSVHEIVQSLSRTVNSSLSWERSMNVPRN
Sequence of LjLYS12 (D3KTZ9 entry or part of it): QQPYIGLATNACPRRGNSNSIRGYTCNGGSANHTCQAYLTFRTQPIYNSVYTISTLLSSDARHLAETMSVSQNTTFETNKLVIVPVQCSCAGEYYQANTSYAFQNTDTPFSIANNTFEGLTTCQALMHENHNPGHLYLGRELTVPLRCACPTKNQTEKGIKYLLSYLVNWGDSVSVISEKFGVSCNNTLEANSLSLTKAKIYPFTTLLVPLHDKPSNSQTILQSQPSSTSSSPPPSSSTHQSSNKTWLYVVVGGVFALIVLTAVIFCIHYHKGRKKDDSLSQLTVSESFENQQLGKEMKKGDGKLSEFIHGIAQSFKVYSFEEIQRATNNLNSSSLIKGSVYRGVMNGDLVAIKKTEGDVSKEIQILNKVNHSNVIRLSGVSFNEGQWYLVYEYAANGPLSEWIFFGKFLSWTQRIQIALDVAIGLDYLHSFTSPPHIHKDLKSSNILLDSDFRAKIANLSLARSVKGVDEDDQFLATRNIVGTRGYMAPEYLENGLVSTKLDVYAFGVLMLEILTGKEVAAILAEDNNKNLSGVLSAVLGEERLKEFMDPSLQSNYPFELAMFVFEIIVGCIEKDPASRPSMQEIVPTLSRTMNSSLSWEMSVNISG
Sequence of PvLYR3 (V7CFC1 entry or part of it): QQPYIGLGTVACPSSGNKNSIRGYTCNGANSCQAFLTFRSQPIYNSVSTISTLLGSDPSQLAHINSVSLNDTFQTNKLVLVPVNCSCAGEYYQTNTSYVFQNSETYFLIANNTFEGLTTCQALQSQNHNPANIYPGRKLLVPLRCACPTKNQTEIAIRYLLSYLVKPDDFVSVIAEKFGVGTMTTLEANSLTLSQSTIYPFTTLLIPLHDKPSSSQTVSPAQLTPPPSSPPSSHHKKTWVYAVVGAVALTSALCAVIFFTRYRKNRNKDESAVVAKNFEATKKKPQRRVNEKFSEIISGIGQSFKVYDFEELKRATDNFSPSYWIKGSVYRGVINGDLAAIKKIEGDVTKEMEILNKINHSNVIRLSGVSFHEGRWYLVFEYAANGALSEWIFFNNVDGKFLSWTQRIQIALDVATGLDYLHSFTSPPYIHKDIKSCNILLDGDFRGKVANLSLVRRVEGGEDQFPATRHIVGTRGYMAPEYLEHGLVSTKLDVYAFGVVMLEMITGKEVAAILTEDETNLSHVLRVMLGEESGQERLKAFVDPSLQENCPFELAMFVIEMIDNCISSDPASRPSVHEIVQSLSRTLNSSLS
Sequence of PsLYR3 (A0A9D5BD18 entry or part of it): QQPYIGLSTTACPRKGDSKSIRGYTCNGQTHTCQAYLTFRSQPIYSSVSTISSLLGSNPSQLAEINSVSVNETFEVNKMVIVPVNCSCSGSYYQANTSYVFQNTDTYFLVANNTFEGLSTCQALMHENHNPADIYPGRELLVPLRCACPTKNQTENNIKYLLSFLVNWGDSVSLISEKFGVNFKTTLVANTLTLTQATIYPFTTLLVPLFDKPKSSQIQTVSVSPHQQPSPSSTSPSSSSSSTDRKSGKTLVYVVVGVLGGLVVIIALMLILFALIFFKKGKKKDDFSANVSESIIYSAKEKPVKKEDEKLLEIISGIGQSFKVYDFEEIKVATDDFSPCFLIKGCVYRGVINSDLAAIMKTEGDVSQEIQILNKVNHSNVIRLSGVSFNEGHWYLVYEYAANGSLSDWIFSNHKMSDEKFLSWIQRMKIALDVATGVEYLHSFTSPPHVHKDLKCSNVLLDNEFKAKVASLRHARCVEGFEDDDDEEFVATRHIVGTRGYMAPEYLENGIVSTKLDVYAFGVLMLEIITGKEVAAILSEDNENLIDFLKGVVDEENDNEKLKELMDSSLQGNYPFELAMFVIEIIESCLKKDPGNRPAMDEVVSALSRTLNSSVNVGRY
Sequence of LYR3 (G7KAT5 entry or part of it): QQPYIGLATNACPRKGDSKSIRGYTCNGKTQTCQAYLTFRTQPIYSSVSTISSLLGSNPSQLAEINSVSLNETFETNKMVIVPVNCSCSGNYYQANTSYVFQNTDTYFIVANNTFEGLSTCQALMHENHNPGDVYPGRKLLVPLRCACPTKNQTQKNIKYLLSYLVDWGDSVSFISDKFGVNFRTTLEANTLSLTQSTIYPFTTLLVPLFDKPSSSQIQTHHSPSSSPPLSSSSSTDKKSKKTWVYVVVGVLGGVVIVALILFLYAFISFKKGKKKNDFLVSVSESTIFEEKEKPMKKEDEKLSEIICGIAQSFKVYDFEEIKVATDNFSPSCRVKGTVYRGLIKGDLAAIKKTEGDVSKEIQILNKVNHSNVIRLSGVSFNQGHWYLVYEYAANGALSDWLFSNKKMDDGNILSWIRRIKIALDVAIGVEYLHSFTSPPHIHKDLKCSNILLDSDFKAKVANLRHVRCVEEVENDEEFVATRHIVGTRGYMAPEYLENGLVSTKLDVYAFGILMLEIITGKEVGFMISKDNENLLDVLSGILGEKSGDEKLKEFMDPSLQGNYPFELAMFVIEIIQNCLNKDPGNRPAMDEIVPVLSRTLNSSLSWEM

`CCCCCC/C=C\CCCCC/C=C/C(=O)N[C@H]1[C@H](O[C@H]2[C@H](O)[C@@H](NC(C)=O)[C@H](O[C@H]3[C@H](O)[C@@H](NC(C)=O)[C@H](O[C@H]4[C@H](O)[C@@H](NC(C)=O)C(O)O[C@@H]4COS(=O)(=O)O)O[C@@H]3CO)O[C@@H]2CO)O[C@H](CO)[C@@H](O)[C@@H]1O` (stereo partly drawn) [LCO-IV (^35S, C16:2Δ2, 9)]: the “binding activity of membrane fractions (interaction with radioligand)” value with SILYR3 is reported as “very low”; at PpLYR3 (PpLYR3), “interacts”; on PsLYR3 (PsLYR3, 1 nM radioligand) it was “interact”; at AtLysM-RLK4, “no interaction”; on GmLYR3-11 (GmLYR3-11, 1 nM radioligand), “interact”; at GmLYR3-1 (GmLYR3-1, 1 nM radioligand), “interact”. Besides, the “binding activity of membrane fractions (interaction with radioligand)” value on PvLYR3 (PvLYR3, 1 nM radioligand) was “interact”; on LjLYS12 (LjLYS12, 1 nM radioligand), “interact”; in the assay with LjNFR1, “no interaction”; in the assay on LjNFR5, “no interaction”. Further, the affinity on PpLYR3 (PpLYR3, saturation), expressed as Kd, was 15 nM.

Regarding `CC(=O)N[C@H]1[C@H](O[C@H]2[C@H](O)[C@@H](NC(C)=O)C(O)O[C@@H]2CO)O[C@H](CO)[C@@H](O[C@@H]2O[C@H](CO)[C@@H](O[C@@H]3O[C@H](CO)[C@@H](O)[C@H](O)[C@H]3NC(C)=O)[C@H](O)[C@H]2NC(C)=O)[C@@H]1O` (stereo partly drawn) [CO-IV, chitotetraose], the Ki on PpLYR3 (PpLYR3, competition) is greater than 5 µM; at LYR3, greater than 5000 nM. For the same molecule, the “binding of the radiolabeled photoactivatable ligand to the 100 kDa polypeptide in presence of excess competitor” value in assay [1] is reported as “not”.

As to `CCCCCCCC/C=C\CCCCCCCC(=O)N[C@H]1[C@H](O[C@H]2[C@H](O)[C@@H](NC(C)=O)[C@H](O[C@H]3[C@H](O)[C@@H](NC(C)=O)[C@H](O[C@H]4[C@H](O)[C@@H](NC(C)=O)C(O)O[C@@H]4COS(=O)(=O)O)O[C@@H]3CO)O[C@@H]2CO)O[C@H](CO)[C@@H](O)[C@@H]1O` (stereo partly drawn) [LCO-IV(S, C18:1Δ9)], the Ki at PsLYR3 (PsLYR3, read-out: Affinity (Ki)) amounted to 16 nM; at LYR3 it was 13.5 nM; on GmLYR3-11 (GmLYR3-11, read-out: Affinity (Ki)), 19 nM; on GmLYR3-1 (GmLYR3-1, read-out: Affinity (Ki)) it was 12 nM; on PvLYR3 (PvLYR3, read-out: Affinity (Ki)), 13 nM; on LjLYS12 (LjLYS12, read-out: Affinity (Ki)), 7 nM. The “binding of the radiolabeled photoactivatable ligand to the 100 kDa polypeptide in presence of excess competitor” value in assay [1] is reported as “inhibited”.

The Kd is the concentration at which binding is half-saturated. By Ki is commonly meant the dissociation constant of the complex between target and ligand, obtained from inhibition or displacement.
